In US20120142668A1, “CATHEPSIN C INHIBITORS” (priority 2009, published 2012):
Counter-ions that a name gives are not always drawn.

Molecular target: recombinant human cathepsin C (Homo sapiens, UniProt P53634)
Assay: Recombinant Cathepsin C In Vitro Assay (cleavage of fluorogenic substrate H-Ser-Tyr-AMC)
Assay type: biochemical
Settings: 24 pM enzyme, pH 5.5, one hour preincubation with compound at room temperature, read-out: concentration at which 50% cathepsin C inhibition is exhibited
Method: C. Recombinant Cathepsin C In Vitro Assay:
The activity of recombinant human cathepsin C was measured by the cleavage of a fluorogenic substrate, H-Ser-Tyr-AMC. Briefly, 24 pM cathepsin C was incubated with test compound (e.g. inhibitor) in a buffer consisting of 50 mM sodium acetate, 30 mM sodium chloride, 1 mM CHAPS, 1 mM dithiothreitol, 1 mM EDTA, pH 5.5 at room temperature for one hour. After one hour of incubating test compound with cathepsin C, the activity assay was initiated by the addition of an equal volume of 0.010 mM H-Ser-Tyr-AMC in the same buffer. After one hour, the activity assay was stopped by the addition of ⅕ volume of 100 μM E-64. The reaction product was measured on a fluorescence reader set at an excitation wavelength of 360 nm and emission wavelength of 460 nm and equipped with a 400 nm dichroic mirror.

Sequence of recombinant human cathepsin C (P53634 25-463): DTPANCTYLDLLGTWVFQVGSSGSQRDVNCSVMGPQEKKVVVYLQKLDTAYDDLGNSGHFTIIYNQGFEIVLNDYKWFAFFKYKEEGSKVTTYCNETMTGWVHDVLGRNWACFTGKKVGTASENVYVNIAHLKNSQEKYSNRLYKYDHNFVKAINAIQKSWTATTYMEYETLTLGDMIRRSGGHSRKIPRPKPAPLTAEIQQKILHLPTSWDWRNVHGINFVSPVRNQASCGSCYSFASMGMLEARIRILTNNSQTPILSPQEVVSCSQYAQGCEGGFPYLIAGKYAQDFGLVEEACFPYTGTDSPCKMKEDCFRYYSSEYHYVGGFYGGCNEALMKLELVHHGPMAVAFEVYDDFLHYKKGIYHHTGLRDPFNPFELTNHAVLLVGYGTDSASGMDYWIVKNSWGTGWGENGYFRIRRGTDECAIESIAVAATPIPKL

| Compound | IC50 [nM] |
| --- | --- |
| C[C@H](N)C(=O)N[C@H](/C=C/C(=O)NCc1ccccc1)CCc1ccccc1 [Example 1, (2E,4S)-4-(L-alanylamino)-6-phenyl-N-(phenylmethyl)-2-hexenamide hydrochloride] | ~100 |
| C[C@H](N)C(=O)N[C@H](/C=C/C(=O)N(C)C)CCc1ccccc1 [Example 3, (2E,4S)-4-(L-alanylamino)-N,N-dimethyl-6-phenyl-2-hexenamide hydrochloride] | ~1000 |
